One test has as its target T1, rat 5-HT2 receptor (Rattus norvegicus, UniProt P14842).
T1 construct: from tissue; host or cells: brain tissue of male Sprague-Dawley rats
It counts as binding. Conditions: brain tissue of male Sprague-Dawley rats; performed in triplicate. From the text: This is quite surprising in light of the N-substituted ergolines having a much greater affinity for the 5-HT2 receptors in rats compared to the corresponding N-unsubstituted ergolines.

Test [1] concerns the target T2, cloned human 5-HT2 receptor (Homo sapiens, UniProt P28223).
T2 construct: expressed in transfected cells
It counts as binding. Conditions: cells containing cloned human 5-HT2 receptor; performed in triplicate.

The results in this text go back to patent US5674875A, “Method of blocking human 5-hydroxytryptamine-2 receptors” (priority 1995, dated 1997).

T1 sequence (P14842 whole entry): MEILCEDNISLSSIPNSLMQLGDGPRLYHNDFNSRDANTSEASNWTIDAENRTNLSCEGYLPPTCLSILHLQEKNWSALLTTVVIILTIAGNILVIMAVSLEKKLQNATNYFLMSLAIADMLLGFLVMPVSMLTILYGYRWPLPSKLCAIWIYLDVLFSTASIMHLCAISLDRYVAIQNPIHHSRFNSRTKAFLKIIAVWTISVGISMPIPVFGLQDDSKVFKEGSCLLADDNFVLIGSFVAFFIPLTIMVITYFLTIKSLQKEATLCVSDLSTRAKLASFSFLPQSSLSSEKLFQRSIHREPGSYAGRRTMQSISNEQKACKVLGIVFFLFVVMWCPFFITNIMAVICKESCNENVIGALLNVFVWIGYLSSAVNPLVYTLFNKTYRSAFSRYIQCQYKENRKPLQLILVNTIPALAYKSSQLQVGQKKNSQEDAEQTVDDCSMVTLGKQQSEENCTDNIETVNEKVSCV
T2 sequence (P28223 whole entry): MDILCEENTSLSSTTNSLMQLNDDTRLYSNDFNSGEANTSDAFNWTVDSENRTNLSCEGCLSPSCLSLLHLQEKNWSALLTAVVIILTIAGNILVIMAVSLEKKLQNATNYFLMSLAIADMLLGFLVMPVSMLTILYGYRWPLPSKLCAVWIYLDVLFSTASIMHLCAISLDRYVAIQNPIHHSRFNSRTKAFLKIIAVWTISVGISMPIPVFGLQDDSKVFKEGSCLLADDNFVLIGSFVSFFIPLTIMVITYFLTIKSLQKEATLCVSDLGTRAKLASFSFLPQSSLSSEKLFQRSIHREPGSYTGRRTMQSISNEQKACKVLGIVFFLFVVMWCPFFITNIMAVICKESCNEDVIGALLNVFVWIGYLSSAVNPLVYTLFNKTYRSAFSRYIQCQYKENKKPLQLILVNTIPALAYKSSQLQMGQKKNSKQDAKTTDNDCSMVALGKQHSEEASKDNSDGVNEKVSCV

The IC50 is the concentration that inhibits the measured activity by half. Read a high IC50 as weaker potency. Consider `CC(C)n1cc2c3c(cccc31)C1CC(C(=O)NC3CC3O)CN(C)C1C2` (centres unmarked) [drawing 3 NH 2-hydroxycyclopropyl], for which the results for the IC50 (against rat 5-HT2 receptor; in test [1]) were 5.8 nM and 27.7 nM, respectively.
